Results from patent US20120101093A1, “SUBSTITUTED IMIDAZO[1,2-A]PYRIDINE DERIVATIVES, PHARMACEUTICAL COMPOSITIONS, AND METHODS OF USE AS BETA-SECRETASE INHIBITORS” (HIGH POINT PHARMACEUTICALS, LLC, priority 2009, published 2012).

Experiments:
BACE-1 enzyme = molecular target: T1, BACE-1 enzyme (Homo sapiens, UniProt P56817); test: BACE Fluorescence Resonance Energy Transfer (FRET) Assay; type: biochemical; conditions: pH 4-4.5, 30 min pre-incubation, about 1.5 hours reaction
T1 construct: purchased R & D Systems 931AS
T1 sequence (P56817 46-457 limits assumed): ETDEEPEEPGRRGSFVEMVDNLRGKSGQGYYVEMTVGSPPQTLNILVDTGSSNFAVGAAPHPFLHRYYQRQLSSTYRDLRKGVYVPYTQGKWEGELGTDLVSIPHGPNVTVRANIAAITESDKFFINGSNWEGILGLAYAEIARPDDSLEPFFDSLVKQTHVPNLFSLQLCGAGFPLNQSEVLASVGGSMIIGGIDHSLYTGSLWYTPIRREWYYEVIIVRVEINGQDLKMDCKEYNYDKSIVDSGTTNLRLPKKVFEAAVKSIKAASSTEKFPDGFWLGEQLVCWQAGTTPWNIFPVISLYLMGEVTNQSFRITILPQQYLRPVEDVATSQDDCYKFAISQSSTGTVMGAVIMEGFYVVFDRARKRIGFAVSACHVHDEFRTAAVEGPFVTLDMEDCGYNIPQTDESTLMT
In short: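 BACE-1 enzyme pre-incubated 30 min with compound in 7.5% DMSO in 50 mM sodium acetate pH 4-4.5, 0.01% CHAPS, 0.0125% Triton X-100, 0.006% EDTA. Rhodamine/quencher peptide substrate added; ~1.5 h at room temperature, fluorescence read at 540/585 nm. IC50 or percent inhibition at one concentration.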

[1] = test system: Aβ1-40 secreted from HEK293 cells stably expressing wildtype human APP695 protein (HEK-APPwt cells); test: Aβ Cell Based Assay (Aβ1-40 secretion, ELISA); conditions: Homo sapiens, HEK293, 6 h, 6 hours incubation, reduction of Aβ1-40 secretion
In short: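 Cells in DMEM with 2% FBS exposed to ten compound concentrations for 6 h at 37 °C. Secreted Aβ1-40 in supernatant quantified by sandwich ELISA (82E1 capture, TMB, OD450). EC50 from percent inhibition, DAPT defining 100% inhibition, non-linear fit.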

Row | IC50 (BACE-1 enzyme) | SMILES | EC50 [1]
1 | 0.77 µM | O=C(Nc1nc2cc(-c3cccc(C(F)(F)F)c3)ccc2[nH]1)c1cn2c(CN3CCC(O)CC3)cccc2n1 [Example 167, 5-(4-Hydroxy-piperidin-1-ylmethyl)-imidazo[1,2-a]pyridine-2-carboxylic acid [5-(3-trifluoromethyl-phenyl)-1H-benzoimidazol-2-yl]-amide] | 1.54 µM
2 | 0.42 µM | O=C(Nc1nc2cc(-c3cccc(C(F)(F)F)c3)ccc2[nH]1)c1cn2c(CNCCN3CCOCC3)cccc2n1 [Example 169, 5-[(2-Morpholin-4-yl-ethylamino)-methyl]-imidazo[1,2-a]pyridine-2-carboxylic acid [5-(3-trifluoromethyl-phenyl)-1H-benzoimidazol-2-yl]-amide] | 5.23 µM
3 | 0.47 µM | CNCc1cccc2nc(C(=O)Nc3nc4cc(-c5cccc(C(F)(F)F)c5)ccc4[nH]3)cn12 [Example 170, 5-Methylaminomethyl-imidazo[1,2-a]pyridine-2-carboxylic acid [5-(3-trifluoromethyl-phenyl)-1H-benzoimidazol-2-yl]-amide] | 2.48 µM
4 | 0.71 µM | O=C(Nc1nc2cc(-c3cccc(C(F)(F)F)c3)ccc2[nH]1)c1cn2c(CNCCCO)cccc2n1 [Example 171, 5-[(3-Hydroxy-propylamino)-methyl]-imidazo[1,2-a]pyridine-2-carboxylic acid [5-(3-trifluoromethyl-phenyl)-1H-benzoimidazol-2-yl]-amide] | 4.26 µM
5 | 0.31 µM | CC(C)(C)NCc1cccc2nc(C(=O)Nc3nc4cc(-c5cccc(C(F)(F)F)c5)ccc4[nH]3)cn12 [Example 172, 5-(tert-Butylamino-methyl)-imidazo[1,2-a]pyridine-2-carboxylic acid [5-(3-trifluoromethyl-phenyl)-1H-benzoimidazol-2-yl]-amide] | 1.92 µM
6 | 0.93 µM | COCCCNCc1cccc2nc(C(=O)Nc3nc4cc(-c5cccc(C(F)(F)F)c5)ccc4[nH]3)cn12 [Example 174, 5-[(3-Methoxy-propylamino)-methyl]-imidazo[1,2-a]pyridine-2-carboxylic acid [5-(3-trifluoromethyl-phenyl)-1H-benzoimidazol-2-yl]-amide] | 4.4 µM
7 | 0.37 µM | CC(C)CNCc1ccc2nc(C(=O)Nc3nc4cc(-c5cccc(C(F)(F)F)c5)ccc4[nH]3)cn2c1 [Example 176, 6-(Isobutylamino-methyl)-imidazo[1,2-a]pyridine-2-carboxylic acid [5-(3-trifluoromethyl-phenyl)-1H-benzoimidazol-2-yl]-amide] | 3.91 µM
8 | 0.3 µM | O=C(Nc1nc2cc(-c3cccc(C(F)(F)F)c3)ccc2[nH]1)c1cn2cc(CO)ccc2n1 [Example 177, 6-Hydroxymethyl-imidazo[1,2-a]pyridine-2-carboxylic acid [5-(3-trifluoromethyl-phenyl)-1H-benzoimidazol-2-yl]-amide] | 1.03 µM
9 | 0.55 µM | O=C(Nc1nc2cc(-c3cccc(C(F)(F)F)c3)ccc2[nH]1)c1cn2cc(CN3CCCC3)ccc2n1 [Example 179, 6-Pyrrolidin-1-ylmethyl-imidazo[1,2-a]pyridine-2-carboxylic acid [5-(3-trifluoromethyl-phenyl)-1H-benzoimidazol-2-yl]-amide] | 4.74 µM
10 | 0.46 µM | O=C(Nc1nc2cc(-c3cccc(C(F)(F)F)c3)ccc2[nH]1)c1cn2cc(CN3CCOCC3)ccc2n1 [Example 182, 6-Morpholin-4-ylmethyl-imidazo[1,2-a]pyridine-2-carboxylic acid [5-(3-trifluoromethyl-phenyl)-1H-benzoimidazol-2-yl]-amide] | 0.54 µM
11 | 0.83 µM | CC(C)CN(C)Cc1ccc2nc(C(=O)Nc3nc4cc(-c5cccc(C(F)(F)F)c5)ccc4[nH]3)cn2c1 [Example 184, 6-[(Isobutyl-methyl-amino)-methyl]-imidazo[1,2-a]pyridine-2-carboxylic acid [5-(3-trifluoromethyl-phenyl)-1H-benzoimidazol-2-yl]-amide] | 4.32 µM
12 | 0.62 µM | CN(Cc1ccccc1)Cc1ccc2nc(C(=O)Nc3nc4cc(-c5cccc(C(F)(F)F)c5)ccc4[nH]3)cn2c1 [Example 185, 6-[(Benzyl-methyl-amino)-methyl]-imidazo[1,2-a]pyridine-2-carboxylic acid [5-(3-trifluoromethyl-phenyl)-1H-benzoimidazol-2-yl]-amide] | 1.93 µM
13 | 0.69 µM | CCN(C)Cc1ccc2nc(C(=O)Nc3nc4cc(-c5cccc(C(F)(F)F)c5)ccc4[nH]3)cn2c1 [Example 188, 6-[(Ethyl-methyl-amino)-methyl]-imidazo[1,2-a]pyridine-2-carboxylic acid [5-(3-trifluoromethyl-phenyl)-1H-benzoimidazol-2-yl]-amide] | 3.6 µM
14 | 0.4 µM | O=C(Nc1nc2cc(-c3cccc(C(F)(F)F)c3)ccc2[nH]1)c1cn2cccc(CO)c2n1 [Example 192, 8-Hydroxymethyl-imidazo[1,2-a]pyridine-2-carboxylic acid [5-(3-trifluoromethyl-phenyl)-1H-benzoimidazol-2-yl]-amide] | 2.56 µM
15 | 0.87 µM | CN1CCN(Cc2cccn3cc(C(=O)Nc4nc5cc(-c6cccc(C(F)(F)F)c6)ccc5[nH]4)nc23)CC1 [Example 194, 8-(4-Methyl-piperazin-1-ylmethyl)-imidazo[1,2-a]pyridine-2-carboxylic acid [5-(3-trifluoromethyl-phenyl)-1H-benzoimidazol-2-yl]-amide] | 6.27 µM
16 | 0.45 µM | CNCc1cccn2cc(C(=O)Nc3nc4cc(-c5cccc(C(F)(F)F)c5)ccc4[nH]3)nc12 [Example 196, 8-Methylaminomethyl-imidazo[1,2-a]pyridine-2-carboxylic acid [5-(3-trifluoromethyl-phenyl)-1H-benzoimidazol-2-yl]-amide] | 5.96 µM
17 | 0.7 µM | CN(C)Cc1cccn2cc(C(=O)Nc3nc4cc(-c5cccc(C(F)(F)F)c5)ccc4[nH]3)nc12 [Example 197, 8-Dimethylaminomethyl-imidazo[1,2-a]pyridine-2-carboxylic acid [5-(3-trifluoromethyl-phenyl)-1H-benzoimidazol-2-yl]-amide] | 0.76 µM
18 | 0.94 µM | CC(C)CN(C)Cc1cccn2cc(C(=O)Nc3nc4cc(-c5cccc(C(F)(F)F)c5)ccc4[nH]3)nc12 [Example 199, 8-[(Isobutyl-methyl-amino)-methyl]-imidazo[1,2-a]pyridine-2-carboxylic acid [5-(3-trifluoromethyl-phenyl)-1H-benzoimidazol-2-yl]-amide] | 5.34 µM
19 | 0.97 µM | O=C(Nc1nc2cc(-c3cccc(C(F)(F)F)c3)ccc2[nH]1)c1cn2ccc(CN3CCOCC3)cc2n1 [Example 201, 7-Morpholin-4-ylmethyl-imidazo[1,2-a]pyridine-2-carboxylic acid [5-(3-trifluoromethyl-phenyl)-1H-benzoimidazol-2-yl]-amide] | 0.87 µM
20 | 0.9 µM | CN(C)Cc1ccn2cc(C(=O)Nc3nc4cc(-c5cccc(C(F)(F)F)c5)ccc4[nH]3)nc2c1 [Example 202, 7-Dimethylaminomethyl-imidazo[1,2-a]pyridine-2-carboxylic acid [5-(3-trifluoromethyl-phenyl)-1H-benzoimidazol-2-yl]-amide] | 4.54 µM
21 | 0.47 µM | O=C(Nc1nc2cc(-c3cccc(C(F)(F)F)c3)ccc2[nH]1)c1cn2ccc(CNCc3ccncc3)cc2n1 [Example 204, 7-{[(Pyridin-4-ylmethyl)-amino]-methyl}-imidazo[1,2-a]pyridine-2-carboxylic acid [5-(3-trifluoromethyl-phenyl)-1H-benzoimidazol-2-yl]-amide] | 2.37 µM
22 | 0.59 µM | CCN(C)Cc1ccn2cc(C(=O)Nc3nc4cc(-c5cccc(C(F)(F)F)c5)ccc4[nH]3)nc2c1 [Example 205, 7-[(Ethyl-methyl-amino)-methyl]-imidazo[1,2-a]pyridine-2-carboxylic acid [5-(3-trifluoromethyl-phenyl)-1H-benzoimidazol-2-yl]-amide] | 3.2 µM
23 | 0.44 µM | O=C(Nc1nc2cc(-c3cccc(C(F)(F)F)c3)ccc2[nH]1)c1cn2ccc(CNCC(O)c3ccccc3)cc2n1 (stereo not shown) [Example 206, 7-[(2-Hydroxy-2-phenyl-ethylamino)-methyl]-imidazo[1,2-a]pyridine-2-carboxylic acid [5-(3-trifluoromethyl-phenyl)-1H-benzoimidazol-2-yl]-amide] | 7.43 µM
24 | 0.69 µM | O=C(Nc1nc2cc(-c3cccc(C(F)(F)F)c3)ccc2[nH]1)c1cn2ccc(CNC(CO)Cc3ccccc3)cc2n1 (stereo not shown) [Example 207, 7-[(1-Benzyl-2-hydroxy-ethylamino)-methyl]-imidazo[1,2-a]pyridine-2-carboxylic acid [5-(3-trifluoromethyl-phenyl)-1H-benzoimidazol-2-yl]-amide] | 7.65 µM
25 | 0.22 µM | COCCCNCc1ccn2cc(C(=O)Nc3nc4cc(-c5cccc(C(F)(F)F)c5)ccc4[nH]3)nc2c1 [Example 209, 7-[(3-Methoxy-propylamino)-methyl]-imidazo[1,2-a]pyridine-2-carboxylic acid [5-(3-trifluoromethyl-phenyl)-1H-benzoimidazol-2-yl]-amide] | 4.91 µM
26 | 0.46 µM | O=C(Nc1nc2cc(-c3cccc(C(F)(F)F)c3)ccc2[nH]1)c1cn2c(C3=CCNCC3)cccc2n1 [Example 214, 5-(1,2,3,6-tetrahydropyridin-4-yl)-N-{5-[3-(trifluoromethyl)phenyl]-1H-benzimidazol-2-yl}imidazo[1,2-a]pyridine-2-carboxamide] | 5.12 µM
